Values of other authors as cited in patent US20080161337A1 (priority 2007, published 2008).

Tests used:
SIBO [1] = conditions: for clinical efficacy for treating SIBO: antibiotics traditionally recommended for treating SIBO
SIBO [2] = conditions: 21 patients with SIBO
[3] = tested on: IBS patients with abnormal LBT; conditions: 82 IBS patients with abnormal LBT; 54-day average follow up
SIBO [4] = conditions: 34 patients with SIBO and functional gastrointestinal symptoms
IBS patients [5] = conditions: 86 IBS patients; sustained for ten weeks after a ten day course
[6] = tested on: functional bowel syndrome patients with abnormal LBT; conditions: 20 functional bowel syndrome patients with abnormal LBT; 63-day average follow up
IBS patients [7] = tested on: IBS patients

Compound | clinical efficacy for treating SIBO (SIBO [1]) [%] | improvement in functional gastrointestinal symptoms (SIBO [2]) | patients with normalized LBT (SIBO [2]; rifaximin seven days at 1200 mg/day) [%] | solubility in water | combined global improvement rated great and moderate [3] [%] | LBT results and functional gastrointestinal symptoms (SIBO [4]) | effectiveness against SIBO (SIBO [1]; human, in vivo) | global IBS symptoms (IBS patients [5]) | combined global improvement rated great and moderate [6] [%] | results versus placebo (IBS patients [7]; 111 IBS patients randomized to neomycin or placebo) | improvement of symptoms (IBS patients [7]; when the LBT was normalized) [%]
Cc1ncc([N+](=O)[O-])n1CCO [metronidazole] | 5 |  |  |  |  |  |  |  |  |  | 
CO[C@H]1/C=C/O[C@@]2(C)Oc3c(C)c(O)c4c(O)c(c5c(nc6cc(C)ccn65)c4c3C2=O)NC(=O)/C(C)=C\C=C\[C@H](C)[C@H](O)[C@@H](C)[C@@H](O)[C@@H](C)[C@H](OC(C)=O)[C@@H]1C [rifaximin] |  | greater with rifaximin than chlortetracycline | 70 | practically insoluble in water | 60 | improved LBT results and functional gastrointestinal symptoms | highly effective against SIBO | statistically significant improvement | 63 |  | 
neomycin | 25 |  |  |  |  |  |  |  |  | significantly better results | 75
